These results are taken from article PMC6023543, “Resistance to Permethrin, β-cyfluthrin, and Diazinon in Florida Horn Fly Populations” (Insects, 2018).

Holding throughout (assay): Ellman assay, […] nm, head homogenate
Holding throughout (format): biochemical, Haematobia irritans

Test [1] deals with T1, acetylcholinesterase (AChE), Labelle field population.
T1 construct: gene Ace; native enzyme in homogenate of five pooled fly heads
To be noted: 0.4 mM acetylthiocholine, pH 7.8 phosphate, 25 °C, 10 min preincubation; covalent.

The target of test [2] is T2, acetylcholinesterase (AChE), BTU field population.
T2 construct: gene Ace; native enzyme in homogenate of five pooled fly heads; mixed genotypes, G262A in a small part of the flies, other mutations not screened
To be noted: 0.4 mM acetylthiocholine, pH 7.8 phosphate, 25 °C, 10 min preincubation; covalent.

The target of test [3] is T3, acetylcholinesterase (AChE), Ona field population.
T3 construct: gene Ace; native enzyme in homogenate of five pooled fly heads; mixed genotypes, G262A in a small part of the flies, other mutations not screened
To be noted: 0.4 mM acetylthiocholine, pH 7.8 phosphate, 25 °C, 10 min preincubation; covalent; stated gain.

In test [4] the target is T4, acetylcholinesterase (AChE), Kerrville susceptible strain.
T4 construct: gene Ace; not purified; G262A absent in this strain
The note with it: 0.4 mM acetylthiocholine, pH 7.8 phosphate, 25 °C, 10 min preincubation; covalent.

Take `CCOP(=O)(OCC)Oc1cc(C)nc(C(C)C)n1` [diazoxon]: the IC50 came out at 9.2 nM in test [1], 6.1 nM in test [2], 20.5 nM in test [3] and 8.2 nM in test [4].
